Test results reported in patent publication US20150087722A1, “TREATMENT FOR BREAST TUMOR CELL METASTASIS” (China Medical University, priority 2012, published 2015).

Tests used:
[1] = tested on: E-cadherin and Vimentin in cells of tumor inoculated nude mice; assay: immunochemistry staining of E-cadherin and Vimentin in tumors of nude mice; type: in vivo; settings: 0.75 mg/Kg everyday
Procedure: ICC includes embedding the tumor cells in paraffin and slicing the embedded cells into slides having a thickness of […] by a slicer, deparaffinizing, rehydrating and renaturating, picking the slide out and putting the slide into the primary antibody E-cadherin; reacting for 1.5 h and washing the slide for three times with PBS, reacting with the secondary antibody for 30 min and washing the slide for three times with PBS, staining the slide with 3′,3′-diaminobenzendine (DAB) at a ratio of 1:30, and the slide was mounted with Entellanz. The expression amount of signaling-related proteins in the cells of tumor inoculated nude mice was detected by an immunochemistry staining method. In this test the expression of E-cadherin and Vimentin was particularly detected. Immunochemistry staining method and the quantitative method thereof were described as in the test example 2-2, and it is not illustrated any further. FIG. 29 illustrates photomicrographs of expression results of signaling-related proteins in the cells of tumor inoculated nude mice after the cells were stained through the immunochemistry staining method. FIGS. 30 and 31 were respective quantitative results of primary antibody reaction.

[2] = tested on: NF-κB in MDA-MB-231 cells; assay: NF-κB immunofluorescence staining; type: cell-based, human; settings: MDA-MB-231, FIG. 7
Procedure: FIG. 7 illustrates photographs taken at a 200× field under a fluorescence microscope, where a primary antibody NF-κB was used and the cells were stained through the immunofluenrence staining method. In the immunofluenrence staining, the compound II in different concentrations were used to stimulate MDA-MB-231 cells, and a primary antibody NF-κB (with a dilution ratio of 1:250) was added, and then the cells were cultured at an atmosphere of 5% CO2 for 2 h at 37° C. Subsequently a fluorescence secondary antibody (with a dilution ratio of 1:200) was added, and finally DAPI (with a dilution ratio of 1:1000) was added. The cells were stored with protect from light at the room temperature for 5 min. The cells were observed under the fluorescence microscope and a photograph (200×) of the cells was taken. Finally, the cells were mounted with the mounting gel.

[3] = tested on: Rat Skin Tumor Cell (B16F1 cell strain); assay: MTT cell viability assay; type: cell-based; settings: Mus musculus, B16-F1
[4] = tested on: EMT-related proteins in human normal breast cells MCF-10A stimulated by TNF-α/TGF-β; assay: western blotting of EMT-related proteins; type: cell-based
Procedure: FIG. 2A illustrates the expression results of EMT-related proteins in breast tumor cells MDA-MB-231 after the breast tumor cells MDA-MB-231 have been respectively cultured under compound II having concentrations of 0, 0.5, 1 and 2 μM for 24 h; and FIG. 2B illustrates the expression results of EMT-related proteins in breast tumor cells MCF-7 after the breast tumor cells MCF-7 have been respectively cultured under the compound II having concentrations of 0, 10, 15 and 20 μM for 24 h. FIG. 3A illustrates the western blotting results of EMT-related proteins in the breast tumor cells MDA-MB-468, where the breast tumor cells MDA-MB-468 are treated with the compound I having concentrations of 0, 0.5, 1 and 2 μM for 24 h, and FIG. 3B illustrates the western blotting results of EMT-related proteins in the breast tumor cells MDA-MB-435, where the breast tumor cells MDA-MB-435 are treated with the compound I having concentrations of 0, 2.5, 5 and 7.5 μM for 24 h. FIG. 4 illustrates the western blotting results of EMT-related proteins in the human normal breast cells MCF-10A stimulated by TNF-α/TGF-β, where the human normal breast cells MCF-10A are treated with the compound I having concentrations of 2 μM for 24 h. The human normal breast cells stimulated by TNF-α/TGF-β can cause TNF-α/TGF-β-induced EMT in the human normal breast cells MCF-10A. The steps of western blotting include: washing cells with PBS twice at 4° C.; adding a lysis buffer and rubbing the cells by a rubbr policeman so as to lyse cells; putting the lysed cell solution into a 1.5 ml microcentrifuge tube and shaking for 1 min; centrifuging at 12000 rpm for 10 min and taking the supernatant; measuring concentration of the protein through a Bio-Rad protein assay kit; and storing the remained extracted protein solution at −70° C.; taking 100 μg protein solution and adding a SDS/protein loading buffer having the same volume, where the SDS/protein loading buffer has a concentration two times larger than the protein solution; boiling the mixture of the protein solution and the SDS/protein loading buffer at 100° C. for 10 min; cooling and loading the protein samples in each hole of gel; adjusting the voltage to 100 V and running the protein samples on the gel until the tracking dye in the sample buffer reaches the bottom of the gel; and subsequently transferring the protein from the gel using electrophoresis. A PVDF membrane was soaked in methanol until the paper was totally wet. […] Then luminescence image equipment was used, where the PVDF was placed onto a black metal plate by a plastic pincer and the face including protein was upwards, a 1:1 mixed Chemiluminesent Substrate was added into the membrane and the exposure time depends on the fluorescence intensity of antibodies. […]

[5] = 2 μM with TNF-α/TGF-β 10 ng/ml, 24 h

Compound	expression amount of proteins used for facilitating tumor proliferation in tumor tissues [1]	expression amount of proteins used for inhibiting tumor proliferation in tumor tissues [1]	expression of NF-κB [2]	IC50 [3]	protein expression amount of E-cadherin and occludin [4, 5]	protein expression amount of vimentin and β-catenin [4, 5]	protein expression amount of E-cadherin and occludin ([4]; compound alone 2 μM)	protein expression amount of vimentin and β-catenin ([4]; compound alone 2 μM)
COC1=C(OC)C(=O)C(C)=C(C)C1=O [compound II]	low	high	inhibit expression of NF-κB	12.8 µM				
COC1=C(OC)C(=O)C(C)=CC1=O [compound I]					also increased	recovered the increase caused by TNF-α/TGF-β stimulating	increased	decreased
